Patent US20180214423A1, “PHARMACEUTICAL COMPOSITION COMPRISING RAPAMYCIN OR DERIVATIVE THEREOF, AND METHOD FOR PRODUCING THE SAME” (NIPPON KAYAKU KABUSHIKI KAISHA, priority 2015, published 2018)

What was measured:
[1] = Test Example B1: preservation stability of everolimus compositions and active pharmaceutical ingredient, residual everolimus by HPLC; type: physicochemical; settings: light-shielded, 60° C.
Protocol: It is to be noted that, in the analysis using liquid chromatography (HPLC) in the present test examples, the measurement was carried out under the following conditions. • Measurement column: Zorbax Eclipse XDB-C18, Rapid resolution HT, 100 mm ×4.6 mm, L8 μm • Detector: ultraviolet absorption spectrophotometer (measurement wavelength: 278 nm) • Column temperature: 45° C. • Mobile phase A: 0.1% formic acid; mobile phase B: methanol/acetonitrile=50/50 • Concentration gradient of mobile phase:
The pharmaceutical compositions obtained by the methods of Example B1 and Comparative Examples B1 to B4 (approximately 1 g each) and the active pharmaceutical ingredient of everolimus (100 mg) were each collected in a brown sample bottle, and were then preserved under light-shielded conditions at 60° C., in a desiccator, the humidity of which had been adjusted with a saturated cobalt chloride aqueous solution (relative humidity: approximately 49%), while the bottle was uncapped.
The residual amounts of everolimus 10 days and 14 days after initiation of the preservation test were measured by liquid chromatography (HPLC), and the residual percentages of everolimus at individual time points were then calculated. It is to be noted that the residual percentage was calculated according to the following formula. The results are shown in Table 5. • Residual percentage (%) of everolimus (peak area of everolimus measured by HPLC at each time point/weighed value of powders)/(peak area of everolimus measured by HPLC before preservation (initial)/weighed value of powders)× 100.

[2] = cited from earlier work

Row | decomposition reaction such as oxidation on preservation (in words) ([1]; relative humidity approximately 49%) | Residual percentage (%) of everolimus, Value on Day 10 ([1]; relative humidity approximately 49% (saturated cobalt chloride), uncapped, Day 10) | Residual percentage (%) of everolimus, Value on Day 14 ([1]; relative humidity approximately 49% (saturated cobalt chloride), uncapped, Day 14) | SMILES | critical relative humidity at 25° C. [2]
1 | rapidly progresses | 5% | 2% | CO[C@H]1C[C@@H]2CC[C@@H](C)[C@@](O)(O2)C(=O)C(=O)N2CCCC[C@H]2C(=O)O[C@H]([C@H](C)C[C@@H]2CC[C@@H](OCCO)[C@H](OC)C2)CC(=O)[C@H](C)/C=C(\C)[C@@H](O)[C@@H](OC)C(=O)[C@H](C)C[C@H](C)/C=C/C=C/C=C/1C [40-O-(2-hydroxyethyl)rapamycin] | 
2 |  |  |  | OC[C@H]1O[C@@H](O[C@H]2[C@H](O)[C@@H](O)C(O)O[C@@H]2CO)[C@H](O)[C@@H](O)[C@H]1O (stereo partly shown) [lactose] | ≥ 95%
3 |  |  |  | OC[C@@H](O)[C@@H](O)[C@H](O)[C@H](O)CO [mannitol] | ≥ 95%
4 |  |  |  | OC[C@@H](O)[C@@H](O)[C@H](O)[C@@H](O)CO [sorbitol] | approximately 70%
5 |  |  |  | OC[C@H]1O[C@H](O[C@H]2O[C@H](CO)[C@@H](O)[C@H](O)[C@H]2O)[C@H](O)[C@@H](O)[C@@H]1O [trehalose] | ≥ 95%
